# Source: patent EP0960886B1, “Peptide T and related peptides in the treatment of inflammation, including multiple sclerosis” (priority 1992, dated 1993)
# Experiments:
# [1] = system: PBMC; experiment: Mitogen induced proliferation of PBMC, 3H thymidine uptake, 6 day culture (Example 8); format: cell-based, human
# Experimental: PBMC (10^5) were cultured in 200 µl RPMI containing 10% heat inactivated foetal bovine serum, 2 mM L-glutamine and gentamycin 100 µg/ml with mitogen and Peptide T added on the first day of culture. Growth was assessed in triplicate by ^3H thymidine uptake following a 6 day incubation and expressed as a proliferation index (cpm in presence of mitogen ± Peptide T […] cpm in absence of stimulation). A proliferation index >1.00 implies growth beyond that in media alone. At physiologically obtainable concentrations, Peptide T inhibits proliferation of normal (HIV seronegative) peripheral blood mononuclear cells (PBMC) without causing significant cytotoxicity as shown in Table III. This effect is long term in that Peptide T given on the first day of a six day culture will inhibit mitogen induced proliferation.
# [2] = system: Molt-4; experiment: Growth of spontaneously proliferating cell line Molt-4; format: cell-based; conditions: p56^lck negative human T lymphoma cell line
# Text: (§1) Molt-4 is a human T lymphoma cell line, p56^lck negative, and Jurkat is a human T cell line, p56^lck positive, that will grow spontaneously in the absence of exogenous stimuli.
# [3] = system: PBMC; experiment: Antigen (measles, mumps and rubella vaccine) induced PBMC proliferation (Example 11); format: cell-based, human; conditions: without Peptide T 3.26 ± 0.55
# Experimental: PBMC were incubated as described in relation to Table III in Example 9 in the presence of live, attenuated measles, mumps and rubella vaccine (Merck Sharp and Dohme, Canada) at a final dilution of 1:20. Peptide T was added either on day 1 of incubation or on a daily basis. Results are expressed as a proliferation index ± standard deviation.
# [4] = system: K562 cells; experiment: MO/MAC supernatant cytotoxicity against K562 cells; format: cell-based
# Experimental: Supernatant (SN) of activated MO/MAC were collected from monolayers of PBMC derived adherent cells that had been exposed to LPS for 23 hours. This SN was tested for cytolytic activity against ^3H-thymidine labelled K562 cells in a 48 hour, 37°C cytotoxicity assay. SN were stored at 4°C overnight or stored frozen at -20°C for longer periods before using.
# The ability of MO/MAC culture SN to lyse target K562 cells was determined in the presence of Peptide T. MO/MAC culture SN was used at a final dilution of 1:6 in the culture well.
# [5] = system: Jurkat; experiment: Growth of spontaneously proliferating cell line Jurkat; format: cell-based; conditions: p56^lck positive human T cell line
# Text: as §1
# [6] = Pharmacokinetics of Peptide T in vivo; conditions: following administration in vivo
# [7] = system: Molt-4 cells; experiment: PBMC mediated killing of Molt-4 cells; format: cell-based, human; conditions: Peptide T added on the first day of a four day culture
# Text: When PBMC are mixed with allogeneic Molt-4 cells the growth of Molt-4 is inhibited (Figure 6). Alloreactive PBMC recognise Molt-4 as foreign and generate cytotoxic effector cells that kill Molt-4. Molt-4 is not a cytotoxic cell line and can not generate alloreactive effector cells. […] It is not possible to distinguish growth of alloreactive T cells from the growth of Molt-4 survivors since neither the growth of alloreactive T cells (Figure 5) nor the growth of Molt-4 (Table IX) would be affected by Peptide T.
# [8] = system: PBMC; experiment: Mixed lymphocyte reaction (Example 13); format: cell-based, human
# [9] = system: Human umbilical vein endothelial cells; experiment: TNF-induced tissue factor expression on endothelial cells, ELISA (Example 6); format: cell-based; conditions: 100 units/ml human recombinant TNF, 4 h; Peptide T 0.5 to 100 µg/ml; triplicate cultures
# Experimental: Human umbilical vein endothelial cells were cultured in M199 medium supplemented with 10% foetal calf serum, endothelial cell growth factor, penicillin, streptomycin and L-glutamine in 96-well dishes using a modification of the procedure of Bevilaqua et al, Proc. Natl. Acad. Sci. USA 83 4533 (1986)). TNF treatment of cultures (100 units.ml) was for 4 h at 37°C in the presence of growth medium, after which the cells were washed and fixed. Cultures were, also treated with Peptide T + TNF or Peptide T alone. In these cultures Peptide T was at a concentration which ranged from 0.5 to 100 µg/ml. Tissue factor expression by the endothelial cells treated with TNF with or without peptide T was determined in an ELISA using a monoclonal antibody which neutralises the activity of human tissue factor (Carlbiochem A/S). Bound anti-tissue factor antibody was detected using peroxidase-conjugated rabbit anti-mouse Ig and the substrate ABST. Colour intensity was determined by the optical density of each well at 405nm.
# [10] = system: TNFα; experiment: Production of TNFα by Con A stimulated PBMC, radioimmune assay (Example 12); format: cell-based, human
# Experimental: Production of Tumour Necrosis Factor α (TNFα): 5x10^6 PBMC/ml were incubated in the presence of Con A (6.25µg/ml) for 48 hours in a humid atmosphere, 5% CO2, 37°C. Peptide T (10^-9M) was added at t=0 and 24 hours. At the end of incubation, SEPHADEX™ G25 (Pharmacia) was added (10mg/ml) and incubated for 10 minutes to remove mitogen. PBMC and SEPHADEX were pelleted by centrifugation and the supernatant tested for levels of TNFα using a TNFα radioimmune assay kit from Amersham. Samples were analysed in duplicate.
smiles,measurement,setting,value
"C[C@@H](N)C(=O)N[C@@H](CO)C(=O)N[C@H](C(=O)N[C@H](C(=O)N[C@H](C(=O)N[C@@H](CC(N)=O)C(=O)N[C@@H](Cc1ccc(O)cc1)C(=O)N[C@H](C(N)=O)[C@@H](C)O)[C@@H](C)O)[C@@H](C)O)[C@@H](C)O [Peptide T, D-Ala-Ser-Thr-Thr-Thr-Asn-Tyr-Thr-NH2]",Proliferation Index ± SD,"[1]; ConA 25 µg/ml, Peptide T 10^-5 mol/l, without Peptide T 4.55±0.66",2.72±1.20
same,Proliferation Index ± SD,"[1]; ConA 25 µg/ml, Peptide T 10^-7 mol/l, without Peptide T 4.55±0.66",3.19±0.06
same,Proliferation Index ± SD,"[1]; ConA 25 µg/ml, Peptide T 10^-9 mol/l, without Peptide T 4.55±0.66",1.98±0.04
same,Proliferation Index ± SD,"[1]; ConA 25 µg/ml, Peptide T 10^-12 mol/l, without Peptide T 4.55±0.66",1.69±0.48
same,Proliferation Index ± SD,"[1]; Media (absence of mitogens), Peptide T 10^-5 mol/l",1.14±0.15
same,Proliferation Index ± SD,"[1]; Media (absence of mitogens), Peptide T 10^-7 mol/l",0.73±0.16
same,Proliferation Index ± SD,"[1]; Media (absence of mitogens), Peptide T 10^-9 mol/l",2.17±1.10
same,Proliferation Index ± SD,"[1]; Media (absence of mitogens), Peptide T 10^-12 mol/l",1.52±0.15
same,Proliferation Index ± SD,"[1]; PHA 25 µg/ml, Peptide T 10^-5 mol/l, without Peptide T 317.0±41.0",149.0±38.4
same,Proliferation Index ± SD,"[1]; PHA 25 µg/ml, Peptide T 10^-7 mol/l, without Peptide T 317.0±41.0",123.6±18.1
same,Proliferation Index ± SD,"[1]; PHA 25 µg/ml, Peptide T 10^-9 mol/l, without Peptide T 317.0±41.0",78.6±23.1
same,Proliferation Index ± SD,"[1]; PHA 25 µg/ml, Peptide T 10^-12 mol/l, without Peptide T 317.0±41.0",103.8±22.8
same,Proliferation Index ± SD,"[1]; PWM 25 µg/ml, Peptide T 10^-7 mol/l, without Peptide T 7.47±0.50",4.47±0.36
same,Proliferation Index ± SD,"[1]; PWM 25 µg/ml, Peptide T 10^-9 mol/l, without Peptide T 7.47±0.50",4.69±0.42
same,Proliferation Index ± SD,"[1]; PWM 25 µg/ml, Peptide T 10^-12 mol/l, without Peptide T 7.47±0.50",4.15±0.23
same,growth of Molt-4 cell line,[2],did not significantly affect
same,Proliferation Index ± S.D.,"[3]; Peptide T added Daily, 10^-7 Mol/L",1.83 ± 0.36
same,Proliferation Index ± S.D.,"[3]; Peptide T added Daily, 10^-9 Mol/L",0.98 ± 0.16
same,Proliferation Index ± S.D.,"[3]; Peptide T added Daily, 10^-11 Mol/L",1.56 ± 0.14
same,Proliferation Index ± S.D.,"[3]; Peptide T added Daily, 10^-13 Mol/L",1.38 ± 0.51
same,Proliferation Index ± S.D.,"[3]; Peptide T added Daily, 10^-15 Mol/L",1.56 ± 0.61
same,Proliferation Index ± S.D.,"[3]; Peptide T added Daily, 10^-17 Mol/L",1.60 ± 0.60
same,Proliferation Index ± S.D.,"[3]; Peptide T added Daily, 10^-19 Mol/L",2.27 ± 1.09
same,Proliferation Index ± S.D.,"[3]; Peptide T added Day 1, 10^-7 Mol/L",4.02 ± 0.78
same,Proliferation Index ± S.D.,"[3]; Peptide T added Day 1, 10^-9 Mol/L",1.91 ± 0.46
same,Proliferation Index ± S.D.,"[3]; Peptide T added Day 1, 10^-11 Mol/L",5.35 ± 1.46
same,Proliferation Index ± S.D.,"[3]; Peptide T added Day 1, 10^-13 Mol/L",5.46 ± 1.37
same,Proliferation Index ± S.D.,"[3]; Peptide T added Day 1, 10^-15 Mol/L",5.56 ± 0.60
same,Proliferation Index ± S.D.,"[3]; Peptide T added Day 1, 10^-17 Mol/L",3.99 ± 0.18
same,Proliferation Index ± S.D.,"[3]; Peptide T added Day 1, 10^-19 Mol/L",6.15 ± 2.59
same,concentration below which cytotoxicity returned to control levels,[4]; Figure 8,below 1x10^-15 M
same,concentration still able to block MO/MAC SN mediated lysis of K562,[4]; SN at final dilution of 1:6,0.1 pM
same,growth of Jurkat cell line,[5],did not significantly affect
same,peak plasma concentrations,[6],55 nM
same,PBMC-mediated inhibition of Molt-4 proliferation,[7],remains unaffected
same,growth of lymphocytes in a mixed lymphocyte reaction,[8],did not affect
same,expression of tissue factor on endothelial cells,[9],inhibited
same,TNFα,"[10]; PBMC+Con A (6.25µg/ml)+Peptide T 10^-9M, 48 hours, PBMC+Con A alone 69.0 ± 6.9",47.0 ± 0.1 fmol/100ul
same,TNFα,"[10]; PBMC+RPMI+Peptide T, no Con A, 48 hours",<1 fmol/100ul
same,TNFα,"[10]; RPMI+Peptide T (no cells), Peptide T 10^-9M",<1 fmol/100ul
